These are literature values, as cited in patent US20020150615A1, “Injectable pharmaceutical composition comprising microdroplets of a camptothecin” (priority 2001, published 2002).

Molecules are shown by their SMILES.

Data set [1] deals with human serum albumin (HSA) (Homo sapiens, UniProt P02768). To be noted: PBS at pH 7.4.
The conditions of data set [2]: human whole blood.

Chain of human serum albumin (HSA) (P02768 25-609): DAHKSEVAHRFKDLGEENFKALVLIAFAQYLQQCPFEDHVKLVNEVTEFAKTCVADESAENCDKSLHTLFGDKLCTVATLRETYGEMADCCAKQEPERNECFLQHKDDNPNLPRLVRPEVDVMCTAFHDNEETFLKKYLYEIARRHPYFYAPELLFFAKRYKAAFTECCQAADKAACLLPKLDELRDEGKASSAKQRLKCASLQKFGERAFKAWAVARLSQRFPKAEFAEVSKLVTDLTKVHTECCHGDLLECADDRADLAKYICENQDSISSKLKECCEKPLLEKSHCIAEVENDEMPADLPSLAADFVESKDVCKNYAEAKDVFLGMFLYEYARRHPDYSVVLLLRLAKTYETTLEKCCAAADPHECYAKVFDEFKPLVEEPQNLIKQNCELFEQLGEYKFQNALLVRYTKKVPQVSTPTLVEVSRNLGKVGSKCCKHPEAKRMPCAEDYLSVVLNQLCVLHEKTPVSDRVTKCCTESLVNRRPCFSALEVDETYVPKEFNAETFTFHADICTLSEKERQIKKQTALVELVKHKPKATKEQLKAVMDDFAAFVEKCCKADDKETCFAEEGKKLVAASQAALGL

For `CC[C@@]1(O)C(=O)OCc2c1cc1n(c2=O)Cc2cc3ccccc3nc2-1` [camptothecin, 20(S)-camptothecin], the “affinity of the carboxylate form relative to the α-hydroxy lactone form” value in data set [1] is 150 fold. For the same molecule, the “half-life of lactone ring opening” value in data set [2] is on record as 22 min.
